Tests used:
[1] = target: T1, GFP-AR (Homo sapiens, UniProt P10275); experiment: Localization of transiently transfected GFP-AR by fluorescence microscopy; assay type: cell-based; settings: transfected C4-2 cells, complete RPMI with 10% FBS, overnight treatment
T1 construct: expressed in transfected cells; also PC3 and LNCaP (transient)
T1 sequence (P10275 1-920): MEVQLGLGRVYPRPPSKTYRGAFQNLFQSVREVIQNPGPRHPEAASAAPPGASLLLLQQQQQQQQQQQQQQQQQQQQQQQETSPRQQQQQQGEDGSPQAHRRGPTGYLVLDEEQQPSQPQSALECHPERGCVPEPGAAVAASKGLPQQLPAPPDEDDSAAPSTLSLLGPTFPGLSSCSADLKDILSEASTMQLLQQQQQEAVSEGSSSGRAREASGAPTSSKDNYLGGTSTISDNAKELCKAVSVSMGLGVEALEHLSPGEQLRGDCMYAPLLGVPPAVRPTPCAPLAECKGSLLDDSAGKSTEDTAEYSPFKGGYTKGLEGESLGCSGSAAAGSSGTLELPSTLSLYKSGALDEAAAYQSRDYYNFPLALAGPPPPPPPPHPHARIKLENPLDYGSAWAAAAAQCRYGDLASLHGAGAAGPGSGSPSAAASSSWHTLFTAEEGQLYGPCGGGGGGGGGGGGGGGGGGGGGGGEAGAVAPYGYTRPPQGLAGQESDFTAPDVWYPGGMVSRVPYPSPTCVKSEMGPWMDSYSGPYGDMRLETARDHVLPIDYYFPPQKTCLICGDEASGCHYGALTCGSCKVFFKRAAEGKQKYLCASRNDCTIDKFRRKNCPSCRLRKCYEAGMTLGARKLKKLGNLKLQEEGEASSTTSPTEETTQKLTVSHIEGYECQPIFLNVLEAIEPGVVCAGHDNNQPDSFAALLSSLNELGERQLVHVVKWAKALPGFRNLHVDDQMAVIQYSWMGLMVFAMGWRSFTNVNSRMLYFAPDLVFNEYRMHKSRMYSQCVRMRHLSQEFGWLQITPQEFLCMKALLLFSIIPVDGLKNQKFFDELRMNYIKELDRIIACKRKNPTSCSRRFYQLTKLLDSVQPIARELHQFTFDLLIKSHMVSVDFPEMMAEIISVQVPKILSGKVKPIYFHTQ
Method: FIGS. 2A and 2B. Localization of GFP-AR in AR-negative PC3, androgen-sensitive LNCaP, and CRPC C4-2 cells. […] PC3, LNCaP, and C4-2 cells were transfected with GFP-AR and localization was assessed in ligand-free conditions or in the presence of mibolerone by fluorescence microscopy within 24 hours of transfection. The results in FIG. 2B are from five transfections for each cell line in the absence of androgen. At least 50 cells were counted after each transfection. Error bars represent ±SEM.
FIGS. 3A and 3B. […] FIG. 3A. […] Localization was assessed by fluorescence microscopy 4 hours after treatment. FIG. 3B.
FIGS. 6A, 6B, 6C and 6D. FIG. 6A. […] FIG. 6B. […] C4-2 cells were transfected with GFP-AR and subcellular localization of GFP-AR was determined after overnight treatment using fluorescent microscopy. FIG. 6C. Quantitative analysis of results in FIG. 6B. […] FIG. 6D. […] Endogenous AR was detected by immunofluorescent staining using AR antibody N-20 (Santa Cruz Biotechnology). Nuclei were stained with Hoechst.
A prerequisite for AR transcriptional activity is its nuclear localization. To determine whether the subcellular localization of AR was altered during the progression to castration-resistance, AR-negative PC3 prostate cancer cells, androgen-sensitive LNCaP cells and castration-resistant C4-2 cells were transfected with AR tagged to green fluorescent protein (GFP) and localization was assessed by fluorescence microscopy in hormone-free conditions.
Hsp90 plays an important role in ligand-induced AR nuclear translocation. […] To determine if the effect of hsp90 inhibition on endogenous AR in C4-2 cells was similar to its effect on transfected GFP-AR, immunofluorescence experiments were performed.

[2] = target: T2, GFP-ER (Homo sapiens, UniProt P03372); experiment: GFP-ER nuclear localization in transfected C4-2 cells; assay type: cell-based; settings: 24 hours
T2 construct: expressed in transfected cells; host or cells: C4-2
T2 sequence (P03372 whole entry): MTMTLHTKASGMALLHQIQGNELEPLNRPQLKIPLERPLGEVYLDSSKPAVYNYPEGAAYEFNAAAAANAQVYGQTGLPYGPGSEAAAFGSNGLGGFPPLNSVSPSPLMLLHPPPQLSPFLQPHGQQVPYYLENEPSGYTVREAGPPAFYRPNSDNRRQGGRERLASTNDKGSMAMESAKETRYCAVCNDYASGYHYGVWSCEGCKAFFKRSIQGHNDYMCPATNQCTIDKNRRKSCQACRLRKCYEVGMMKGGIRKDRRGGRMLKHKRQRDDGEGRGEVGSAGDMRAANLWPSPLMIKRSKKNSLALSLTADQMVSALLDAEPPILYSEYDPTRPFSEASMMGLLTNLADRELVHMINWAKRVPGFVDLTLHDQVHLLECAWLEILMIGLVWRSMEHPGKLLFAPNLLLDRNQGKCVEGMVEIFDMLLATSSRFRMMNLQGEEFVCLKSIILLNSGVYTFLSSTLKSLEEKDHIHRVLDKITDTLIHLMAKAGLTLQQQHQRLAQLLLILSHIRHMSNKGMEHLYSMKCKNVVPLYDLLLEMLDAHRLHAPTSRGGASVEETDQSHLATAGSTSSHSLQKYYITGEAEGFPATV
Method: FIG. 7. The effect of SID 14730725 and SID 3712502 on nuclear localization of GFP-ER (Top panel) and GFP-GR (Bottom panel) in C4-2 cells. C4-2 cells were transfected with GFP-ER or GFP-GR overnight. The following day the cells were treated with different concentrations (uM) of the small molecules. The cells transfected with GFP-GR were co-treated with 0.5 μM Dexamethasone. Cells were imaged 24 hours after the treatment with the small molecules.

[3] = test system: LNCaP cells; experiment: BrdU incorporation, LNCaP; assay type: cell-based; settings: 48 hrs
Method: (§1) FIGS. 14A-F. Effect of SID 3712502 at indicated concentrations on BrdU incorporation in cultured AR-positive LNCaP (FIG. 14A), C4-2 (FIG. 14B), 22Rv1 (FIG. 14C), LAPC4 (FIG. 14D) cells, and AR-negative DU145 (FIG. 14E) and PC3 (FIG. 14F) cells. Cells were plated in 12-well plates at 2,500 cell per well in RPMI 1640 complete medium. After 24 hrs, the cells were treated with SID 3712502 at the indicated concentrations for 48 hrs and BrdU incorporation was assayed according to manufacturer's instructions (Invitrogen BrdU staining kit; catalog #: 93-3943). The percentage of BrdU-positive cells was determined and then normalized to generate relative BrdU index. Ctrl=DMSO control.

[4] = test system: C4-2 cells; experiment: BrdU incorporation, C4-2; assay type: cell-based; settings: C4-2, 48 hrs
Method: as §1

[5] = test system: castration resistant 22Rv1 xenograft tumors; experiment: 22Rv1 xenograft tumors in castrated SCID mice; assay type: in vivo; settings: i.p. 25 mg/kg every other day
Method: (§2) FIGS. 15A-B. SID 3712502 inhibited the growth of castration resistant 22Rv1 xenograft tumors (FIG. 15A), but not PC3 tumors (FIG. 15B). 22Rv1 or PC3 tumors were established by s.c. injection of 1×10^6 cells into young adult male SCID mice. SCID mice were castrated and randomized when tumor volume reached ˜400 uL. Mice received i.p. delivery of SID 3712502 (25 mg/kg body weight) or vehicle control EPL every other day, beginning 4 days after castration (injection indicated by arrows). Each group consisted of 10 mice for 22Rv1, and 8 mice for PC3 tumors. Tumor volumes were measured using micro-calipers and calculated using the formula (length×width^2)/2. Black and red lines represent data from the animals treated with vehicle (C) and SID 3712502 (SID), respectively. P value was calculated using a two-way ANOVA with the Bonferrroni correction (GraphPad). Error bars=SEM. **p<0.01.

[6] = test system: PC3 tumors; experiment: PC3 xenograft tumors in castrated SCID mice; assay type: in vivo; settings: i.p. 25 mg/kg every other day
Method: as §2

[7] = Pilot toxicity experiment in mice; assay type: in vivo; settings: all doses tested, highest 100 mg/kg; data not shown
Method: […]. […] A pilot experiment was also performed testing the toxicity of SID 3712502 in mice.

What does the source list for Cc1cccc(N2CCN(C(=O)CSCc3c(C)noc3C)CC2)c1C [SID 3712502, 2-[(3,5-dimethyl-1,2-oxazol-4-yl)methylsulfanyl]-1-[4-(2,3-dimethylphenyl)piperazin-1-yl]ethanone]?
GFP-AR nuclear localization [1]: effectively inhibited; localization of GFP-ER [2]: no effect; proliferation (BrdU incorporation) [3]: inhibited the proliferation; proliferation (BrdU incorporation) [4]: inhibited the proliferation; growth of 22Rv1 xenograft tumor [5]: significantly inhibited the growth; growth of AR-negative PC3 tumor [6]: did not inhibit; toxicity in mice [7]: no identifiable effect
